Source: patent US20260207777A1, “IMPROVED PEPTIDE INHIBITORS OF P53 BINDING PROTEIN 53BP1” (KAMAU THERAPEUTICS, INC., priority 2022, published 2026)

What was measured:
CD34+ HSPCs [1] = assay: validation of individual i53 variants via lentiviral expression; GFP integration by flow cytometry (HBB-UBC-GFP AAV); assay type: cell-based, human; details: HBB-UBC-GFP AAV MOI=1250
From the text: Sequences of individual i53 variants of interest were cloned into the lentiviral-based expression plasmid described above. Hits were validated either as pooled “validation libraries” (variant and control plasmids manually mixed to generate a pool of 5-25 variants) or individually. Lentivirus generated from these plasmids was used to transduce CD34+ HSPC cells at MOIs of 0.5-1 at day 1 post thaw. […] Cells transduced with pooled validation libraries were edited in triplicate or quadruplet; cells transduced with individual variants were edited in duplicate.
For individual testing of variants, rates of integration of the HBB-UBC-GFP donor were measured using a Beckman Coulter CytoFLEX. DAPI (Miltenyi Biotec) was used to discriminate live and dead cells. mCherry expression was used to differentiate transduced cells from untransduced cells and rates of GFP integration were compared between the two populations to quantify the impact of lentiviral-based variant expression on HDR rates. Flow cytometry data were analyzed using FlowJo 10 software.

53BP1 Tudor domain = 53BP1 Tudor domain (Homo sapiens, UniProt Q12888); assay: Bio-Layer Interferometry (BLI) with immobilized 53BP1 Tudor domain; details: biotin-labeled immobilized 53BP1 Tudor domain; 1:1 binding model
Description: Data were collected using an Octet R8 system (Sartorius). Purified 53BP1 Tudor domain was labeled at exposed primary amine groups with NHS-biotin using ChromaLINK NHS-Biotin protein labeling kit (Vector Laboratories). 1 equivalent of chromalink biotin was incubated with the 53BP1 Tudor domain for 2 hours and buffer exchanged into fresh PBS. Labeling efficiency was calculated to be approximately 1 biotin per molecule of 53BP1 Tudor domain. Octet SA Biosensor tips (Sartorius) were incubated with biotin-labeled 53BP1 Tudor domain (ligand) for 60-80 seconds. The labeled tip was then dipped in 1× binding buffer (Sartorius) for 60 seconds to remove excess ligand and achieve baseline. […] A range of analyte concentrations were tested from a highest to lowest concentration in nM (i.e. 200, 100, 50, 25, 12.5, 6.25, 3.125). The tips were then introduced to 1× binding buffer for 5 minutes and the response was continuously monitored to detect dissociation. A dissociation constant (KD) was calculated using a 1:1 binding model and the on-rate (ka) and off-rate […] were calculated as a change in response (nm) over time (sec).

CD34+ HSPCs [2] = assay: editing of CD34+ HSPCs with purified i53 variant proteins and HBB-UBC-GFP AAV donor; flow cytometry; assay type: cell-based, human; details: for increase of % HDR over DM: HBB-UBC-GFP AAV MOI 1250, protein 0.4 mg/mL, GFP integration in live cells, L67R/L67H value is the average of both; for increase in levels of GFP integration over control edited without protein: HBB-UBC-GFP AAV MOI 2500, average across all concentrations tested (0.1-0.8 mg/mL) and of L67R and L67H
Description: (§1) Chemically-modified single guide RNAs (sgRNAs) used to edit CD34+ HSPCs at the HBB locus were purchased from Synthego. The sgRNA sequences were modified by adding 2′-O-methyl-3′-phosphorothioate at the three terminal nucleotides of the 5′ and 3′ ends. The target sequence for the HBB sgRNA is as follows: HBB: 5′[…]-3′ (SEQ ID NO: 74). Cas9 protein (SpyFi Cas9) was purchased from Aldevron. The RNPs were complexed at a Cas9:sgRNA molar ratio of 1:2.5 at 25° C. for 10-15 min prior to electroporation. Cells were collected, counted, and pelleted at 180 g×7 min. The cell pellets were resuspended in Maxcyte buffer with complexed RNPs and electroporated using a Maxcyte EXPERT ATx Nucleofector. After electroporation cells were plated at 3.5×10^5 cells/mL in media supplemented with cytokines and the desired AAV donor added at 5.0×10^2-2.5×10^4 vector genomes/cell. 24 h after nucleofection, cells were spun down, washed once with media, and seeded into AAV-free media at a density of 3.5×10^5 cells/mL.
(§2) CD34+ HPSCs were edited with protein variants 3 days post thaw and were harvested 2 days post nucleofection for NGS analysis or 3-5 days post nucleofection for GFP expression analysis. Editing reactions with proteins at a given concentration were repeated in duplicate or triplicate (either using the same CD34+ HSPC donor or across multiple donors).
Rates of targeted integration of the HBB UBC GFP donor were measured using a Beckman Coulter CytoFLEX. DAPI (Miltenyi Biotec) was used to discriminate live and dead cells. Flow cytometry data were analyzed using FlowJo 10 software.

CD34+ HSPCs [3] = assay: editing of CD34+ HSPCs with purified i53 variant proteins and HBB-SNP AAV donor; NGS of editing outcomes; assay type: cell-based, human; details: for increase of % HDR over control edited without protein: FIG. 13, average across all concentrations (0.1, 0.2, 0.4 mg/mL) and of L67R and L67H; for increase in levels of HDR corrected alleles over DM / impact on % NHEJ: protein 0.4 mg/mL; for increase in levels of HDR corrected alleles over DM: L67R/L67H value is the average of both; for levels of % HDR corrected alleles: HBB-SNP AAV MOI 312.5 with protein 0.4 mg/mL, compared with 2500 MOI alone (8x the amount of AAV); for impact on % NHEJ: HBB-SNP AAV MOIs 312.5 and 2500
Description: as §1, §2
24 h after nucleofection, cells were spun down, washed with media, and seeded into AAV and DNAPKi-free media at a density of 3.5×10^5 cells/mL.
The frequency of homology directed repair (HDR) and other editing outcomes at HBB were measured using Next Generation Sequencing (NGS). An NGS assay was developed to determine the frequency of at the HBB locus by quantifying the total number of alleles that have been either: (1) not edited (% WT), (2) changed by HDR to incorporate sequence differences present in the AAV repair template (% HR), or (3) mutated during the genome correction process resulting in a gene that produces mutant β-globin (% INDELs).
For this assay, genomic DNA was harvested from cells using a Quick-DNA 96 Plus Kit (Zymo Research). The DNA concentration was measured using a Qubit 1×dsDNA BR assay kit (ThermoFisher). Purified genomic DNA was then used to amplify the HBB locus via polymerase chain reaction (PCR). The PCR products were diluted using nuclease-free water to serve as the template DNA for targeted NGS library prep. A second PCR with primers carrying partial Illumina adapters was performed to amplify a 142 base pair sequence that includes the region of the HBB locus that is to be corrected during the genome correction process. The PCR products were diluted again to serve as templates in a third PCR reaction using Nextera XT index primers. This third PCR reaction was used to assign unique identifiers to each sample and to add the full length adapter sequences necessary for Illumina sequencing. The size of the PCR products was assessed on an Agilent BioAnalyzer. PCR products were then pooled, purified using a Qiagen PCR purification kit, and quantified using PicoGreen in order to ready the PCR products for sequencing.
Based on the PicoGreen concentration, the library of pooled PCR products was diluted to a final concentration of 4 nM. Sequencing was performed on a MiSeq system using an Illumina MiSeq sequencing reagent kit (V2, 300 cycles). A 10% PhiX control library was added to the sample library to improve sequence diversity and to allow for error rate measurements. The library was denatured and loaded at […] onto the sequencing reagent cartridge. The sequencing entails paired-end 150 base pair reads and dual indexing reads. The sequencing data was demultiplexed based on the sample indexes provided and FASTQ files for each sample are generated.
The FASTQ files were processed using the CRISPResso2 pipeline^3. The data was reported as % WT, % corrected by HR, and % INDELs. […]

CD34+ HSPCs [4] = assay: DNA damage response (DDR) markers yH2AX and p21 in edited HSPCs; details: protein 0.8 mg/mL; any given MOI (78.125-2500); 24 h post nucleofection
Description: In order to quantify the induction of the DNA damage response (DDR) pathways, a subset of edited cells was harvested 24 h post nucleofection to quantify DDR markers p21 and yH2AX^5.

Sequence of 53BP1 Tudor domain (Q12888 1484-1603): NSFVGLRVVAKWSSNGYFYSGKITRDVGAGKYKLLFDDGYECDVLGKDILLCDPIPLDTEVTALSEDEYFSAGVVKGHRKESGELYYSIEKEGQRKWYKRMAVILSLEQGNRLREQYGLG

Row | Substance | rates of GFP integration in mCherry+ live cells in relation to mCherry- control cells, compared with i53 and DM (CD34+ HSPCs [1]) | rate of binding compared to parent i53 (53BP1 Tudor domain) | increase of % HDR over DM (CD34+ HSPCs [2]) [%] | increase in levels of GFP integration over control edited without protein (CD34+ HSPCs [2]) [%] | increase of % HDR over control edited without protein (CD34+ HSPCs [3]; HBB-SNP AAV MOI 312.5) [%] | increase of % HDR over control edited without protein (CD34+ HSPCs [3]; HBB-SNP AAV MOI 2500) [%] | increase in levels of HDR corrected alleles over DM (CD34+ HSPCs [3]; HBB-SNP AAV MOI 312.5) [%] | levels of % HDR corrected alleles (CD34+ HSPCs [3]) | increase in levels of HDR corrected alleles over DM (CD34+ HSPCs [3]; HBB-SNP AAV MOI 2500) [%] | impact on % NHEJ (CD34+ HSPCs [3]) | p21 response (CD34+ HSPCs [4]) | yH2AX response (CD34+ HSPCs [4])
1 | L67H: i53 variant with His at position 67 | higher rates of GFP integration | measurably increased rate of binding compared to parent i53 | 69 | 70 | 62 | 27 | 56 | approaching those using 2500 MOI alone | 44 | more significant impact on % NHEJ relative to i53 | – | –
2 | L67R: i53 variant with Arg at position 67 | higher rates of GFP integration | measurably increased rate of binding compared to parent i53 | 69 | 70 | 62 | 27 | 56 | approaching those using 2500 MOI alone | 44 | more significant impact on % NHEJ relative to i53 | not found to significantly increase | not found to significantly increase
